Data published in article PMC10382584, “Macrocyclization of linear molecules by deep learning to facilitate macrocyclic drug candidates discovery” (Nature Communications, 2023).

Columns and labels:
Assay in all cases: biochemical
Parameters in all cases: DiscoveRx KINOMEscan competition binding, percent of DMSO control signal at 100 nM
Conditions in all cases: read-out: Fig. 4a / Percent Control / Compound 1; percent of DMSO control, competition binding
[1] = target: T1, ABL1(M351T)-phosphorylated (Homo sapiens, UniProt P00519, M351T)
T1 construct: phosphorylated

[2] = target: T2, AMPK-alpha1 (Homo sapiens, UniProt Q13131)
T2 construct: gene PRKAA1

[3] = target: BTK (Homo sapiens, UniProt Q06187)
[4] = target: CAMK1 (Homo sapiens, UniProt Q14012)
[5] = target: DAPK1 (Homo sapiens, UniProt P53355)
[6] = target: EGFR(E746-A750del) (Homo sapiens, UniProt P00533, DEL746-750)
[7] = target: EGFR(L747-S752del, P753S) (Homo sapiens, UniProt P00533, DEL747-752/P753S)
[8] = target: T3, ERK1 (Homo sapiens, UniProt P27361)
T3 construct: gene MAPK3

[9] = target: T4, ERK8 (Homo sapiens, UniProt Q8TD08)
T4 construct: gene MAPK15

[10] = target: FGFR1 (Homo sapiens, UniProt P11362)
[11] = target: HIPK3 (Homo sapiens, UniProt Q9H422)
[12] = target: T5, HPK1 (Homo sapiens, UniProt Q92918)
T5 construct: gene MAP4K1

[13] = target: KIT(L576P) (Homo sapiens, UniProt P10721, L576P)
[14] = target: LATS1 (Homo sapiens, UniProt O95835)
[15] = target: LRRK2 (Homo sapiens, UniProt Q5S007)
[16] = target: MERTK (Homo sapiens, UniProt Q12866)
[17] = target: T6, MST1 (Homo sapiens, UniProt Q13043)
T6 construct: gene STK4

[18] = target: NEK5 (Homo sapiens, UniProt Q6P3R8)
[19] = target: T7, NIK (Homo sapiens, UniProt Q99558)
T7 construct: gene MAP3K14

[20] = target: T8, NIM1 (Homo sapiens, UniProt Q8IY84)
T8 construct: gene NIM1K

[21] = target: PRKCI (Homo sapiens, UniProt P41743)
[22] = target: PRKX (Homo sapiens, UniProt P51817)
[23] = target: T9, RPS6KA4(Kin.Dom.2-C-terminal) (Homo sapiens, UniProt O75676)
T9 construct: Kin.Dom.2-C-terminal

[24] = target: SGK2 (Homo sapiens, UniProt Q9HBY8)
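Also: KINOMEscan kinase panel binding assay, signal normalized between DMSO as 100% and a positive control compound as 0%.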

Chain of FGFR1 (P11362 whole entry): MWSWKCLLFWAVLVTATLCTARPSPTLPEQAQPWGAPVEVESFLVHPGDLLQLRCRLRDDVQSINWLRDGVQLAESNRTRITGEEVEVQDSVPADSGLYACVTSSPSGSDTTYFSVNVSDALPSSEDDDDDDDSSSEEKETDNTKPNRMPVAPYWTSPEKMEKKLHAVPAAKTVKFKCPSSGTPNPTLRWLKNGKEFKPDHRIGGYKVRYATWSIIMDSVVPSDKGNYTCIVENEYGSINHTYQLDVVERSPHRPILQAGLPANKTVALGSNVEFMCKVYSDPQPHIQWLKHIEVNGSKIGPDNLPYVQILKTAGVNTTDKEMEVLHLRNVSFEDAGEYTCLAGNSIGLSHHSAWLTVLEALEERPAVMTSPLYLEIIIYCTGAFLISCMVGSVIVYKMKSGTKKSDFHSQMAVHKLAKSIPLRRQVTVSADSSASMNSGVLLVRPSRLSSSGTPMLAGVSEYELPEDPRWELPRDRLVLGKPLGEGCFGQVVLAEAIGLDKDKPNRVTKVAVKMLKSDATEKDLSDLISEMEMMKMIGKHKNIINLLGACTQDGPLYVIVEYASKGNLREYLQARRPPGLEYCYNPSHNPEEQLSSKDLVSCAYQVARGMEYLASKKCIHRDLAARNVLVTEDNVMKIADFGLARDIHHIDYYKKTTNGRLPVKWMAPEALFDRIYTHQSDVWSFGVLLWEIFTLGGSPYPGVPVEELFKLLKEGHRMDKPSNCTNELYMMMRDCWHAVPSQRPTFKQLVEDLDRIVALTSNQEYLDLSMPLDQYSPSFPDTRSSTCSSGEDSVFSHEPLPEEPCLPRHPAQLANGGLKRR
Chain of LRRK2 (Q5S007 whole entry): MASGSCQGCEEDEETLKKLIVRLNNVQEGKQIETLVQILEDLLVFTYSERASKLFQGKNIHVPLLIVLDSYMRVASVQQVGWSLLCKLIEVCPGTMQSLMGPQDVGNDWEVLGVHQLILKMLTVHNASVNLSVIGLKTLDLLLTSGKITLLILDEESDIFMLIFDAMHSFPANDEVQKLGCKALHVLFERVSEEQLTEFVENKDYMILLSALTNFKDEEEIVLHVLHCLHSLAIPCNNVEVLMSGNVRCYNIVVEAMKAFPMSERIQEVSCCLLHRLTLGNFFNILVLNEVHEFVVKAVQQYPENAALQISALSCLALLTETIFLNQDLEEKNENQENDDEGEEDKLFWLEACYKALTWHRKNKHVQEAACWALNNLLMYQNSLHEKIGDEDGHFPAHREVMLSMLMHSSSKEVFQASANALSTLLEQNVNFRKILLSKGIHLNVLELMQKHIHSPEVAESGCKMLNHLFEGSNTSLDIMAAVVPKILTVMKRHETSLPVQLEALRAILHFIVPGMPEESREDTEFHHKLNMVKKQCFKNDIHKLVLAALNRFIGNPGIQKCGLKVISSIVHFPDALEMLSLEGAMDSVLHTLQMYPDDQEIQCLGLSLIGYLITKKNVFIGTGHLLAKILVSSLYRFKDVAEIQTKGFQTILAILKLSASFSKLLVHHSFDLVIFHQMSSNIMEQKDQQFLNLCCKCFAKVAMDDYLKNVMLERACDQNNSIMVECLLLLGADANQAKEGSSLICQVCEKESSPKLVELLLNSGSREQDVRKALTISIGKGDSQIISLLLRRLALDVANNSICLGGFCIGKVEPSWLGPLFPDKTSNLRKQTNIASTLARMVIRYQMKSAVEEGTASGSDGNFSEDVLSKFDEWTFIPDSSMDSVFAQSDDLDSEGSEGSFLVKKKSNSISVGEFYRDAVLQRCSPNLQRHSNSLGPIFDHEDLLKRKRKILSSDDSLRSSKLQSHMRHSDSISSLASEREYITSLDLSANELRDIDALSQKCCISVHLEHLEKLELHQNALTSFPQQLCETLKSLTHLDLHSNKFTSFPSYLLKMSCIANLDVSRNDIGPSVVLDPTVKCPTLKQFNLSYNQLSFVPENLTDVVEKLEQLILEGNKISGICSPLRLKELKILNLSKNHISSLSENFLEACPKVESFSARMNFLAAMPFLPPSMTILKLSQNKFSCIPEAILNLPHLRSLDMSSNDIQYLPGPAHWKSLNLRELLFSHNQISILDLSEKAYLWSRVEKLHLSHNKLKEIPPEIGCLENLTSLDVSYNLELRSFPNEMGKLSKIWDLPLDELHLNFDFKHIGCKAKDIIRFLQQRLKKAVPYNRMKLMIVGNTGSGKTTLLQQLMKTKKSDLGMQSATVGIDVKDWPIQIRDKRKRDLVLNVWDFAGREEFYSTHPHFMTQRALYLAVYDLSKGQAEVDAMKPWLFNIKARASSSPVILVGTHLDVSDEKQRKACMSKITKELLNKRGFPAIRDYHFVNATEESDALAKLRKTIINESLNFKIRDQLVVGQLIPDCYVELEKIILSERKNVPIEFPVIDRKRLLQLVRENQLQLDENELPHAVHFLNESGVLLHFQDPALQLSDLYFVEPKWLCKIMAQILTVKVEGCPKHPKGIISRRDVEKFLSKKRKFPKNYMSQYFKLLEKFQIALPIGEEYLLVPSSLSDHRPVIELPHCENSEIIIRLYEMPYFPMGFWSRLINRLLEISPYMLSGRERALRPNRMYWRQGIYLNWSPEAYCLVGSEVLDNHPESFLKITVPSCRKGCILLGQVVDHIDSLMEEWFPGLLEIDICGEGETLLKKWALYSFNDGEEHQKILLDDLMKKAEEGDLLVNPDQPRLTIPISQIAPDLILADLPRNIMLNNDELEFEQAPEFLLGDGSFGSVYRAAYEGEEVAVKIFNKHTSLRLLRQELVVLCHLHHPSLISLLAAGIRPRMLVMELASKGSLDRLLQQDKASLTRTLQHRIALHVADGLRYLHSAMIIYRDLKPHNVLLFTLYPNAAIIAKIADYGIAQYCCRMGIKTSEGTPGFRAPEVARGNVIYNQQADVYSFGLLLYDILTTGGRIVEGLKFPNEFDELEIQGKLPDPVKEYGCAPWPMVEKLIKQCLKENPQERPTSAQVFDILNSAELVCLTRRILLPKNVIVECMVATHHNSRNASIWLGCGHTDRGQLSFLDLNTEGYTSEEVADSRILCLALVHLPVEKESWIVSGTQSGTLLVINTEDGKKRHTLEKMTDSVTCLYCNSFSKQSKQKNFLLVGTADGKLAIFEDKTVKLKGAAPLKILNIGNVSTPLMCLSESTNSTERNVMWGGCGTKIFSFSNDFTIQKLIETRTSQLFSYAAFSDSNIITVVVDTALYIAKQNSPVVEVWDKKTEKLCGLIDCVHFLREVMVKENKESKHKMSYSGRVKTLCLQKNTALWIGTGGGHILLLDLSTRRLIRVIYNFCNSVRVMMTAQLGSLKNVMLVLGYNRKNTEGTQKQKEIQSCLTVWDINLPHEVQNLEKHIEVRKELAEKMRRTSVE
Chain of CAMK1 (Q14012 whole entry): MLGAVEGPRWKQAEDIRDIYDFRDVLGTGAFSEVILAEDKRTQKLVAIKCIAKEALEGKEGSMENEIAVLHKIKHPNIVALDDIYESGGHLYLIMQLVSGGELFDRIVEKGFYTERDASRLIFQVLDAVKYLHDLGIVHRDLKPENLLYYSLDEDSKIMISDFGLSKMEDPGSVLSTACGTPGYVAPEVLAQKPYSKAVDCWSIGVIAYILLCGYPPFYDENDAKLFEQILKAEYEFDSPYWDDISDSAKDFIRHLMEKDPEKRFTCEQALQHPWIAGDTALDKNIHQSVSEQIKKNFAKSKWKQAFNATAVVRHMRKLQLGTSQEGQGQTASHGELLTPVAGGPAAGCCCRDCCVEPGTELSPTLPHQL
T2 sequence (Q13131 whole entry): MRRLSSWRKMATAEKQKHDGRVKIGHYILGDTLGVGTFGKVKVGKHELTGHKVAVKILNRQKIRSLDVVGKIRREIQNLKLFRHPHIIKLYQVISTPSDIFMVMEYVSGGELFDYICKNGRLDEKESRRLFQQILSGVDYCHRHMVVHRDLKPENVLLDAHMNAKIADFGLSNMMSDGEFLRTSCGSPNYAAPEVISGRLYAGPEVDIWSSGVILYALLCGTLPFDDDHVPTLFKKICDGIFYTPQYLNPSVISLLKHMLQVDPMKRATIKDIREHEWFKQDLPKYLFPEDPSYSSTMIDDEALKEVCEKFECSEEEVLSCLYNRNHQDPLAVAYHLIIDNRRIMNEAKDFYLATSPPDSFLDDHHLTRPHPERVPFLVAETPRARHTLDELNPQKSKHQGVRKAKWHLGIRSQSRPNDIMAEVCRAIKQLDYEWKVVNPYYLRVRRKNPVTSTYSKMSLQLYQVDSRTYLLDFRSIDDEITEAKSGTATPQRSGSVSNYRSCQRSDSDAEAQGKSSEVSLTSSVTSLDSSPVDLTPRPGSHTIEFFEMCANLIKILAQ
Chain of PRKX (P51817 whole entry): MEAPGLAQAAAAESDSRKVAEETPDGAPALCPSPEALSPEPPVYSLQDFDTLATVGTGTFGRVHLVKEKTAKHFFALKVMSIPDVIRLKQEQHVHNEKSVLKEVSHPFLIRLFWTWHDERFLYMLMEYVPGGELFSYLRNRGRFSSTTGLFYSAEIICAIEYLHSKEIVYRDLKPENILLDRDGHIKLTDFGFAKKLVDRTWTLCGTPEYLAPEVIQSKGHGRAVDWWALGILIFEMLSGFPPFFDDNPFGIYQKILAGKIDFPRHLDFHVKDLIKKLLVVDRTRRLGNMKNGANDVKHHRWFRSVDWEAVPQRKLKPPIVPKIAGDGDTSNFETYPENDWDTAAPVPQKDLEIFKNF
Chain of SGK2 (Q9HBY8 whole entry): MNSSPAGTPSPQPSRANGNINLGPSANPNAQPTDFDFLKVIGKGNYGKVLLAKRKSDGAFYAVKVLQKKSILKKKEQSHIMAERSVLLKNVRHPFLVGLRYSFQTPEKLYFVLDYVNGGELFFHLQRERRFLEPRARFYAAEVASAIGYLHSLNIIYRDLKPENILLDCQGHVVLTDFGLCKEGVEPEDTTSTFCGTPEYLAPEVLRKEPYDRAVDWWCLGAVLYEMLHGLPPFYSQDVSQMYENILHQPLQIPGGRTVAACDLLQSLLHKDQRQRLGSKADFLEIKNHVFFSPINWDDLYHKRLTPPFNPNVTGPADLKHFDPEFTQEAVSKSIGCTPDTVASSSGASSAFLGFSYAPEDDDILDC

`Cc1cnc2nc1Nc1cccc(c1)COCc1cc(ccc1OCCN1CCCC1)N2` [Compound 1] was tested, and the remaining binding at 0.1 µM [1] was 63%, the remaining binding at 0.1 µM [2] was 100% and the remaining binding at 0.1 µM [3] was 86%. The remaining binding at 0.1 µM [4] was 92%, the remaining binding at 0.1 µM [5] was 94% and the remaining binding at 0.1 µM [6] was 89%. For the same molecule, the remaining binding at 0.1 µM [7] was 80%, the remaining binding at 0.1 µM [8] was 100% and the remaining binding at 0.1 µM [9] was 99%. For the same molecule, the remaining binding at 0.1 µM [10] was 89%, the remaining binding at 0.1 µM [11] was 87% and the remaining binding at 0.1 µM [12] was 72%. The remaining binding at 0.1 µM [13] was 14%, the remaining binding at 0.1 µM [14] was 100% and the remaining binding at 0.1 µM [15] was 85%. It also gave a remaining binding at 0.1 µM [16] of 81%, a remaining binding at 0.1 µM [17] of 100% and a remaining binding at 0.1 µM [18] of 93%. For the same molecule, the remaining binding at 0.1 µM [19] was 74%, the remaining binding at 0.1 µM [20] was 99% and the remaining binding at 0.1 µM [21] was 80%. The remaining binding at 0.1 µM [22] was 76%, the remaining binding at 0.1 µM [23] was 75% and the remaining binding at 0.1 µM [24] was 97%.
